Data published in patent EP2471783A1, “Novel polymorphic form of efavirenz” (Esteve Química, S.A., priority 2010, dated 2012).

How the values were obtained:
[1] = Dissolution studies in heptane (solubility curve, dissolution point by turbidity); format: physicochemical; details: for Dissolution Temperatures: in heptane, heating ramp 0.2°C/min, 10% reduction in turbidity; for solubility in heptane, compared between forms: temperature range studied 17-82°C
Protocol: To determine the solubility curve of a given polymorphic form, different concentrations in heptane were prepared and charged to a HEL multi-reactor, using 100 mL vessels. These reactors were equipped with 4-blade PTFE turbines, (set to 150 rpm), temperature probes and turbidity probes. Temperature was controlled by applying the same re-circulating heater-chiller unit to all vessel jackets and using individual temperature compensation by external heating plates below each vessel. Heating ramps of 0.2°C/min were applied to each vessel, and the dissolution point determined by a 10% reduction in turbidity. […] Table VI. Results for solubility in heptane

[2] = cited from earlier work
[3] = Dissolution studies in ethanol-water (volume of ethanol required for dissolution of an aqueous suspension); format: physicochemical; details: suspension in water 20 mL with DSS 0.02 g, 20°C, ethanol added at 0.2 mL/min, 50% reduction in turbidity
Protocol: Dissolution experiments were performed for forms I, III and C of Efavirenz. To an aqueous suspension of each form, ethanol was added and the volume recorded in order for dissolution. Efavirenz is hydrophobic and has a tendency to float in water. To improve the dispersion of efavirenz in water, a surfactant was used, namely, docusate sodium (DSS), the dioctyl ester of sodium sulfosuccinate. DSS is a widely used pharmaceutical excipient and food additive. Efavirenz, polymorphic form and quantity as indicated in the table V, was suspended in water (milliQ, 20 mL) with DSS (docusate sodium, 0.02 g) in a 100 mL vessel. This mixture was placed in an ultrasonic batch for 5 minutes to break up any agglomerates and then the vessel was transferred to an automated (HEL) reaction block equipped with pitched 4-blade turbine PTFE agitators (set to 120 rpm), turbidity probes and syringe pumps. The temperature inside the vessels was controlled by jackets connected to a re-circulating heater-chiller unit. The mixtures were agitated at 20°C and turbidity probes adjusted before addition of ethanol at a continuous rate of 0.2 mL/min via the syringe pumps. The volume of ethanol required for dissolution was taken as that required for a 50% reduction in the turbidity reading. […]

[4] = Accelerated stability conditions; format: physicochemical
From the text: Thus, in one aspect, the present invention is directed to a polymorphic form C of Efavirenz characterized by an X-ray powder diffraction pattern which comprises characteristic 2θ values at: 7.1, 7.3, 11.0, 13.8, 14.2, 14.6, 19.1, 20.9, 21.2, 24.5 and 24.9 ± 0.2 degrees 2θ.

[5] = Comparative and competitive slurry experiments (mixtures of forms, followed by powder X-ray diffraction); format: physicochemical
Protocol: Mixtures of Efavirenz form I with form III or form C were prepared according to table II. The suspensions were stirred at 20°C with small PTFE coated cross-shaped magnetic stirrers and samples taken after 1, 2 and 7 days, filtered, dried at ambient temperature under vacuum for 20 minutes and analyzed by powder X-ray diffraction.

[6] = slurry in ethanol/water, 20°C, samples after 1, 2 and 7 days

O=C1Nc2ccc(Cl)cc2[C@@](C#CC2CC2)(C(F)(F)F)O1 [Form III, (4S)-6-chloro-4-(cyclopropylethynyl)-4-(trifluoromethyl)-1,4-dihydro-2H-3,1-benzoxazin-2-one]
Dissolution Temperatures ([1]; concentration 0,010 g/mL): 31 °C
Dissolution Temperatures ([1]; concentration 0,040 g/mL): 55 °C
Dissolution Temperatures ([1]; concentration 0,067 g/mL): 62 °C
Dissolution Temperatures ([1]; concentration 0,180 g/mL): 75 °C
solubility in heptane, compared between forms [1]: less soluble at low temperature

O=C1Nc2ccc(Cl)cc2[C@@](C#CC2CC2)(C(F)(F)F)O1 [Efavirenz, (4S)-6-chloro-4-(cyclopropylethynyl)-4-(trifluoromethyl)-1,4-dihydro-2H-3,1-benzoxazin-2-one]
aqueous solubility [2]: extremely poor

O=C1Nc2ccc(Cl)cc2[C@@](C#CC2CC2)(C(F)(F)F)O1 [Form C, (4S)-6-chloro-4-(cyclopropylethynyl)-4-(trifluoromethyl)-1,4-dihydro-2H-3,1-benzoxazin-2-one]
Dissolution Temperatures ([1]; concentration 0,010 g/mL): 17 °C
Dissolution Temperatures ([1]; concentration 0,040 g/mL): 49 °C
Dissolution Temperatures ([1]; concentration 0,067 g/mL): 56 °C
Dissolution Temperatures ([1]; concentration 0,200 g/mL): 71 °C
solubility in heptane, compared between forms [1]: more soluble in heptane than forms I and III
volume of ethanol required to achieve dissolution, compared between forms [3]: consistently requires less volume of ethanol than forms I and III
stability ([4]; 25°C and 60% relative humidity): stable during at least three months
stability ([4]; 40°C and 75% relative humidity): stable during at least three months
conversion of form C into form I ([5]; form C in its pure form, without any contamination with form I): not observed
content of form C in a mixture of form I and form C [5, 6]: decreases with time, although some still remains in the mixture after 7 days
content of form C in a mixture of form I and form C ([5]; slurry in methanol/water, 20°C, samples after 1, 2 and 7 days): a similar trend is observed although the transformation is slower

O=C1Nc2ccc(Cl)cc2[C@@](C#CC2CC2)(C(F)(F)F)O1 [Form I, (4S)-6-chloro-4-(cyclopropylethynyl)-4-(trifluoromethyl)-1,4-dihydro-2H-3,1-benzoxazin-2-one]
Dissolution Temperatures ([1]; concentration 0,010 g/mL): 29 °C
Dissolution Temperatures ([1]; concentration 0,040 g/mL): 64 °C
Dissolution Temperatures ([1]; concentration 0,067 g/mL): 74 °C
Dissolution Temperatures ([1]; concentration 0,200 g/mL): 82 °C
solubility in heptane, compared between forms [1]: less soluble at high temperature
content of form I in a mixture of form I and form III [5, 6]: decreases with time, and after 7 days the mixture has converted completely to form III
